Assay results as given in patent US12558428B2, “Heterobifunctional compounds and their use in treating disease” (Halda Therapeutics OpCo, Inc., priority 2024, dated 2026).
Read-outs that look alike come from different tables or passages of the source.

Legend:
Format in all cases: cell-based
[1] = test system: T-Rex 293 cells having increased expression of estrogen receptor alpha protein; experiment: Cellular growth inhibition assay, T-Rex 293 cells, (+) doxycycline; details: T-REx-293, 72 h, T-Rex 293 cells with doxycycline (increased ERα expression), 72 hours, CellTiter-Glo, read-out: (+) Dox GI50
Outline: (§1)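 Cells of an inducible ERα-expressing T-Rex 293 clone are seeded in charcoal-dextran FBS medium with or without 3 ng/mL doxycycline, then treated after 24 h with compound dilutions (0.5% DMSO) for 72 h. Growth inhibition is measured by CellTiter-Glo luminescence and expressed as GI50.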

[2] = test system: T-Rex 293 cells lacking increased expression of estrogen receptor alpha protein; experiment: Cellular growth inhibition assay, T-Rex 293 cells, (−) doxycycline; details: T-REx-293, 72 h, T-Rex 293 cells without doxycycline (lacking increased ERα expression), 72 hours, CellTiter-Glo, read-out: (−) Dox GI50
Outline: as §1

[3] = test system: MCF7 cells (ATCC #HTB-22); experiment: Cellular growth inhibition assay, MCF7 cells purchased from ATCC; details: Homo sapiens, MCF7, 144 h, Table 8-A; MCF7 cells purchased from ATCC; six days; CellTiter-Glo; read-out: GI50
Outline: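 GI50 values come from a four-parameter fit of CellTiter-Glo 2.0 luminescence after six days of compound exposure at 37° C. Seeding density depended on the source: 225 cells/well for ECACC MCF7, 1,500 for ATCC. Medium was RPMI 1640 with 10% FBS and 0.2 U/ml insulin.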

COc1cc(N2CCN(CC3(O)CCN(c4cc(F)c(C5=N[C@@H](C)c6nnc(C)n6-c6sc(C)c(C)c65)cc4F)CC3)CC2)ccc1[C@@H]1c2ccc(O)cc2CC[C@@H]1c1ccccc1 [III-339, 1-(2,5-difluoro-4-((S)-2,3,6,9-tetramethyl-6H-thieno[3,2-f][1,2,4]triazolo[4,3-a][1,4]diazepin-4-yl)phenyl)-4-((4-(4-((1S,2S)-6-hydroxy-2-phenyl-1,2,3,4-tetrahydronaphthalen-1-yl)-3-methoxyphenyl)piperazin-1-yl)methyl)piperidin-4-ol]
GI50 ([1]; Table 7-A): < 50 nM | GI50 ([2]; Table 7-A): > 2500 nM | GI50 [3]: < 50 nM

COc1cc(N2CCN(CC3(O)CCN(c4cc(F)c(C5=N[C@@H](C)c6nnc(C)n6-c6sc(C)c(C)c65)cc4F)CC3)CC2)ccc1[C@H]1c2ccc(O)cc2CC[C@H]1c1ccccc1 [III-340, 1-(2,5-difluoro-4-((S)-2,3,6,9-tetramethyl-6H-thieno[3,2-f][1,2,4]triazolo[4,3-a][1,4]diazepin-4-yl)phenyl)-4-((4-(4-((1R,2R)-6-hydroxy-2-phenyl-1,2,3,4-tetrahydronaphthalen-1-yl)-3-methoxyphenyl)piperazin-1-yl)methyl)piperidin-4-ol]
GI50 ([1]; Table 7-A): 50 to 500 nM | GI50 ([2]; Table 7-A): 50 to 500 nM | GI50 [3]: 50 to 500 nM

COc1cc(N2CCN(CC3(O)CCN(c4cc(F)c(C5=N[C@@H](C)c6nnc(C)n6-c6sc(C)c(C)c65)cc4F)CC3)CC2)c(F)cc1[C@@H]1c2ccc(O)cc2CC[C@@H]1c1ccccc1 [III-341, 1-(2,5-difluoro-4-((6S)-2,3,6,9-tetramethyl-6H-thieno[3,2-f][1,2,4]triazolo[4,3-a][1,4]diazepin-4-yl)phenyl)-4-((4-(2-fluoro-4-((1S,2S)-6-hydroxy-2-phenyl-1,2,3,4-tetrahydronaphthalen-1-yl)-5-methoxyphenyl)piperazin-1-yl)methyl)piperidin-4-ol]
GI50 ([1]; Table 7-A): < 50 nM | GI50 ([2]; Table 7-A): > 2500 nM | GI50 [3]: < 50 nM

COc1cc(N2CCN(CC3(O)CCN(c4cc(F)c(C5=N[C@@H](C)c6nnc(C)n6-c6sc(C)c(C)c65)cc4F)CC3)CC2)c(F)cc1[C@H]1c2ccc(O)cc2CC[C@H]1c1ccccc1 [III-342, 1-(2,5-difluoro-4-((6S)-2,3,6,9-tetramethyl-6H-thieno[3,2-f][1,2,4]triazolo[4,3-a][1,4]diazepin-4-yl)phenyl)-4-((4-(2-fluoro-4-((1R,2R)-6-hydroxy-2-phenyl-1,2,3,4-tetrahydronaphthalen-1-yl)-5-methoxyphenyl)piperazin-1-yl)methyl)piperidin-4-ol]
GI50 ([1]; Table 7-A): 50 to 500 nM | GI50 ([2]; Table 7-A): 50 to 500 nM | GI50 [3]: 50 to 500 nM

Cc1sc2c(c1C)C(c1ccc(N3C[C@@H]4C(NCCOc5ccc([C@H]6c7ccc(O)cc7CC[C@H]6c6ccccc6)cc5)[C@H]4C3)cc1)=NC(Cc1ncco1)c1nnc(C)n1-2 (stereo partly drawn) [III-347]
GI50 ([1]; Table 7-B): < 50 nM | GI50 ([2]; Table 7-B): < 50 nM | GI50 [3]: < 50 nM

Cc1sc2c(c1C)C(c1ccc(N3CCN(CC4CCN(c5ccc(C6=C(c7ccc(Cl)cc7Cl)CCCc7cc(C(=O)O)ccc76)cc5)CC4)CC3)cc1)=N[C@@H](C)c1nnc(C)n1-2 [IV-1]
GI50 ([1]; Table 7-A): < 50 nM | GI50 ([2]; Table 7-A): > 2500 nM | GI50 [3]: 50 to 500 nM

Cc1sc2c(c1C)C(c1ccc(N3CCN(CCN4CC[C@H](Oc5ccc(C6=C(c7ccc(Cl)cc7Cl)CCCc7cc(C(=O)O)ccc76)cc5)C4)CC3)cc1)=N[C@@H](C)c1nnc(C)n1-2 [IV-2]
GI50 ([1]; Table 7-A): 50 to 500 nM | GI50 ([2]; Table 7-A): 500 to 2500 nM | GI50 [3]: 50 to 500 nM

Cc1sc2c(c1C)C(c1ccc(N3CCN(CCN4CC(Oc5ccc(C6=C(c7ccc(Cl)cc7Cl)CCCc7cc(C(=O)O)ccc76)cc5)C4)CC3)cc1)=N[C@@H](C)c1nnc(C)n1-2 [IV-3]
GI50 ([1]; Table 7-A): < 50 nM | GI50 ([2]; Table 7-A): 500 to 2500 nM | GI50 [3]: 50 to 500 nM

Cc1sc2c(c1C)C(c1ccc(N3CCN(CC4CCN(c5ccc(C6=C(c7ccc(Cl)cc7Cl)CCCc7cc(C(=O)O)ccc76)cc5)CC4)CC3)cc1)=N[C@@H](Cc1ncco1)c1nnc(C)n1-2 [IV-4]
GI50 ([1]; Table 7-A): 50 to 500 nM | GI50 ([2]; Table 7-A): 500 to 2500 nM | GI50 [3]: < 50 nM

Cc1sc2c(c1C)C(c1ccc(N3CCC(O)(CN4CCC(c5ccc(C6=C(c7ccc(Cl)cc7Cl)CCCc7cc(C(=O)O)ccc76)cc5)CC4)CC3)cc1)=N[C@@H](C)c1nnc(C)n1-2 [IV-5]
GI50 ([1]; Table 7-A): < 50 nM | GI50 ([2]; Table 7-A): > 2500 nM | GI50 [3]: 50 to 500 nM

Cc1sc2c(c1C)C(c1ccc(N3CCC(CN4CCC(c5ccc(C6=C(c7ccc(Cl)cc7Cl)CCCc7cc(C(=O)O)ccc76)cc5)CC4)CC3)cc1)=N[C@@H](C)c1nnc(C)n1-2 [IV-6]
GI50 ([1]; Table 7-A): 50 to 500 nM | GI50 ([2]; Table 7-A): 500 to 2500 nM | GI50 [3]: 50 to 500 nM

Cc1sc2c(c1C)C(c1ccc(N3CCC(C(=O)N4CCN(c5ccc(C6=C(c7ccc(Cl)cc7Cl)CCCc7cc(C(=O)O)ccc76)cc5)CC4)CC3)cc1)=N[C@@H](C)c1nnc(C)n1-2 [IV-7]
GI50 ([1]; Table 7-A): 50 to 500 nM | GI50 ([2]; Table 7-A): 500 to 2500 nM | GI50 [3]: 50 to 500 nM

Cc1sc2c(c1C)C(c1ccc(N3CC(CN4CCN(CC5CN(c6ccc(C7=C(c8ccc(Cl)cc8Cl)CCCc8cc(C(=O)O)ccc87)cc6)C5)CC4)C3)cc1)=N[C@@H](C)c1nnc(C)n1-2 [IV-8]
GI50 ([1]; Table 7-A): < 50 nM | GI50 ([2]; Table 7-A): 500 to 2500 nM | GI50 [3]: < 50 nM

Cc1sc2c(c1C)C(c1ccc(N3CCC(O)(CN4CCN(c5ccc(C6=C(c7ccc(Cl)cc7Cl)CCCc7cc(C(=O)O)ccc76)cc5)CC4)CC3)cc1)=N[C@@H](C)c1nnc(C)n1-2 [IV-9]
GI50 ([1]; Table 7-A): < 50 nM | GI50 ([2]; Table 7-A): 500 to 2500 nM | GI50 [3]: < 50 nM

Cc1sc2c(c1C)C(c1ccc(N3CC(CN4CCN(c5ccc(C6=C(c7ccc(Cl)cc7Cl)CCCc7cc(C(=O)O)ccc76)cc5)CC4)C3)cc1)=N[C@@H](C)c1nnc(C)n1-2 [IV-10]
GI50 ([1]; Table 7-A): 50 to 500 nM | GI50 ([2]; Table 7-A): 500 to 2500 nM | GI50 [3]: 50 to 500 nM

Cc1sc2c(c1C)C(c1ccc(N3CCC(CN4CCN(c5ccc(C6=C(c7ccc(Cl)cc7Cl)CCCc7cc(C(=O)O)ccc76)cc5)CC4)CC3)cc1)=N[C@@H](C)c1nnc(C)n1-2 [IV-11]
GI50 ([1]; Table 7-A): < 50 nM | GI50 ([2]; Table 7-A): 500 to 2500 nM | GI50 [3]: 50 to 500 nM

Cc1sc2c(c1C)C(c1ccc(CC(=O)N3CCC4(CCN(c5ccc(C6=C(c7ccc(Cl)cc7Cl)CCCc7cc(C(=O)O)ccc76)cc5)CC4)C3)cc1)=N[C@@H](C)c1nnc(C)n1-2 [IV-12]
GI50 ([1]; Table 7-A): 50 to 500 nM | GI50 ([2]; Table 7-A): 500 to 2500 nM | GI50 [3]: 50 to 500 nM

Cc1sc2c(c1C)C(c1ccc(N3CC(CN4CCN(c5ccc(C6=C(c7ccc(Cl)cc7Cl)CCCc7cc(C(=O)O)ccc76)cc5)CC4)C3)cc1)=N[C@@H](Cc1ncco1)c1nnc(C)n1-2 [IV-13]
GI50 ([1]; Table 7-A): < 50 nM | GI50 ([2]; Table 7-A): 50 to 500 nM | GI50 [3]: < 50 nM

Cc1sc2c(c1C)C(c1ccc(N3CCC(CN4CCN(c5ccc(C6=C(c7ccc(Cl)cc7Cl)CCCc7cc(C(=O)O)ccc76)cc5)CC4)CC3)cc1)=N[C@@H](Cc1ncco1)c1nnc(C)n1-2 [IV-14]
GI50 ([1]; Table 7-A): < 50 nM | GI50 ([2]; Table 7-A): 500 to 2500 nM | GI50 [3]: < 50 nM

Cc1sc2c(c1C)C(c1ccc(N3CCC(O)(CN4CCN(c5ccc(C6=C(c7ccc(Cl)cc7Cl)CCCc7cc(C(=O)O)ccc76)cc5)CC4)CC3)cc1)=N[C@H](C)c1nnc(C)n1-2 [IV-15]
GI50 ([1]; Table 7-A): > 2500 nM | GI50 ([2]; Table 7-A): > 2500 nM | GI50 [3]: 500 to 2500 nM

Cc1sc2c(c1C)C(c1ccc(N3CCC(O)(CN4CCN(c5ccc(C6=C(c7ccccc7)CCCc7cc(C(=O)O)ccc76)cc5)CC4)CC3)cc1)=N[C@@H](C)c1nnc(C)n1-2 [IV-16]
GI50 ([1]; Table 7-A): < 50 nM | GI50 ([2]; Table 7-A): 500 to 2500 nM | GI50 [3]: < 50 nM

Cc1sc2c(c1C)C(c1ccc(N3CCC(O)(CN4CCN(c5ccc(C6=C(c7ccccc7)CCCc7cc(O)ccc76)cc5)CC4)CC3)cc1)=N[C@@H](C)c1nnc(C)n1-2 [IV-17]
GI50 ([1]; Table 7-A): < 50 nM | GI50 ([2]; Table 7-A): 500 to 2500 nM | GI50 [3]: < 50 nM

Cc1sc2c(c1C)C(c1ccc(N3CCC(O)(CN4CCN(c5ccc(C6=C(c7ccccc7Cl)CCCc7cc(C(=O)O)ccc76)cc5)CC4)CC3)cc1)=N[C@@H](C)c1nnc(C)n1-2 [IV-18]
GI50 ([1]; Table 7-A): < 50 nM | GI50 ([2]; Table 7-A): 500 to 2500 nM | GI50 [3]: < 50 nM

Cc1sc2c(c1C)C(c1ccc(N3CCC(O)(CN4CCN(c5ccc(C6=C(c7ccc(Cl)cc7Cl)CCCc7cc(O)ccc76)cc5)CC4)CC3)cc1)=N[C@@H](C)c1nnc(C)n1-2 [IV-19]
GI50 ([1]; Table 7-A): < 50 nM | GI50 ([2]; Table 7-A): 500 to 2500 nM | GI50 [3]: 50 to 500 nM

Cc1sc2c(c1C)C(c1ccc(N3CCC(O)(CN4CCN(c5ccc(C6=C(c7ccccc7Cl)CCCc7cc(O)ccc76)cc5)CC4)CC3)cc1)=N[C@@H](C)c1nnc(C)n1-2 [IV-20]
GI50 ([1]; Table 7-A): < 50 nM | GI50 ([2]; Table 7-A): 500 to 2500 nM | GI50 [3]: < 50 nM

Cc1sc2c(c1C)C(c1ccc(N3CCC(F)(CN4CCC(c5ccc(C6=C(c7ccc(Cl)cc7Cl)CCCc7cc(C(=O)O)ccc76)cc5)CC4)CC3)cc1)=N[C@@H](C)c1nnc(C)n1-2 [IV-21]
GI50 ([1]; Table 7-A): < 50 nM | GI50 ([2]; Table 7-A): 500 to 2500 nM | GI50 [3]: 50 to 500 nM

Cc1sc2c(c1C)C(c1ccc(N3CC(CN4CC(CN5CC(c6ccc(C7=C(c8ccccc8)CCCc8cc(C(=O)O)ccc87)cc6)C5)C4)C3)cc1)=N[C@@H](C)c1nnc(C)n1-2 [IV-22]
GI50 ([1]; Table 7-A): < 50 nM | GI50 ([2]; Table 7-A): 50 to 500 nM | GI50 [3]: < 50 nM

Cc1sc2c(c1C)C(c1ccc(N3CC(CC4CN(CC5CN(c6ccc(C7=C(c8ccccc8)CCCc8cc(C(=O)O)ccc87)cc6)C5)C4)C3)cc1)=N[C@@H](C)c1nnc(C)n1-2 [IV-23]
GI50 ([1]; Table 7-A): < 50 nM | GI50 ([2]; Table 7-A): 50 to 500 nM | GI50 [3]: < 50 nM
